Values of other authors as cited in article PMC10957545, “Anti-diabetic and anti-inflammatory bioactive hits from Coriaria intermedia Matsum. stem and Dracontomelon dao (Blanco) Merr. & Rolfe bark through bioassay-guided fractionation and liquid chromatography-tandem mass spectrometry” (Frontiers in Pharmacology, 2024).
In brackets after ≈: the same amount, converted by molar mass. Like-named read-outs stand apart in the source and are kept apart here.

Columns and labels:
[1] = system: lipopolysaccharide (LPS)-induced nitric oxide (NO), prostaglandin E2 (PGE2), and interleukin-6 (IL-6) production; design: method as in BenSaad et al., 2017; details: ref BenSaad et al., 2017
[2] = system: different cancer cell lines; design: method as in Li et al., 2018; details: both in vitro and in vivo; ref Li et al., 2018
[3] = system: ovalbumin-induced asthmatic mice; design: method as in Jin and Yi, 2023; details: via the AMP-activated protein kinase pathway; ref Jin and Yi, 2023
[4] = system: spike receptor binding domain (spike-RBD) of SARS-CoV-2 virus / human angiotensin-converting enzyme 2 (hACE2); design: method as in Yang et al., 2021; details: dose-dependent manner; ref Yang et al., 2021
[5] = system: mice fed with a high fat diet (HFD); design: method as in Liao et al., 2022; details: ref Liao et al., 2022
[6] = system: proinflammatory cytokines and mediators; cyclooxygenase-2 expression; design: method as in Zhao et al., 2008, as cited in Li et al. (2018); details: ref Zhao et al., 2008, as cited in Li et al. (2018)
[7] = system: streptozotocin-induced diabetic rats; design: method as in Nandini and Naik, 2019; details: treated orally, end of the study; ref Nandini and Naik, 2019
sucrase = system: sucrase; design: method as in Kato et al., 2008; details: at a concentration of 400 µM; ref Kato et al., 2008
maltase = system: maltase; design: method as in Kato et al., 2008; details: at a concentration of 400 µM; ref Kato et al., 2008
α-amylase = system: α-amylase; design: method as in Kato et al., 2008; details: at a concentration of 400 µM; ref Kato et al., 2008
[8] = system: advanced glycation end products formation; design: method as in Jung et al., 2012; details: ref Jung et al., 2012; read-out: inhibition of advanced glycation end products formation, IC50
[9] = system: p38, ERK, and PI 3-kinase/Akt and ROS accumulation; design: method as in Moon et al., 2018; details: ref Moon et al., 2018
[10] = system: LPS-induced nuclear factor kappa B (NF-κB) activation; design: method as in Oh et al., 2010; details: ref Oh et al., 2010
glucose uptake = system: glucose uptake; design: method as in Xu et al., 2018; details: ref Xu et al., 2018
beta pancreatic cells = system: beta pancreatic cells; design: method as in Xu et al., 2018; details: ref Xu et al., 2018
colon inflammation = system: colon inflammation; design: method as in Guri et al., 2011; details: abscisic acid intake; ref Guri et al., 2011
neuroinflammation = system: neuroinflammation; design: method as in Jeon et al., 2020; details: abscisic acid intake; ref Jeon et al., 2020
[11] = isolated from Terminalia macroptera leaves, ref Pham et al., 2014

SMILES: O=c1oc2c(O)c(O)cc3c(=O)oc4c(O)c(O)cc1c4c23 [Compound 1, ellagic acid]
- effect on LPS-induced NO, PGE2 and IL-6 production [1]: inhibition
- IC50 AGLUC (α-glucosidase (AGLUC); previously reported, ref You et al., 2012): 2.18 [You et al. (2012)] µg/mL

SMILES: O=C(O[C@@H]1O[C@@H]2COC(=O)c3cc(O)c(O)c(O)c3-c3c(cc(O)c(O)c3O)C(=O)O[C@H]([C@H]1O)[C@@H]2O)c1cc(O)c(O)c(O)c1 [Compound 2, corilagin]
- IC50 (α-glucosidase (AGLUC); [11]): 2.58 ± 0.08 µM
- antitumor activities [2]: exhibit antitumor activities
- airway inflammation and collagen deposition [3]: reduce
- binding of spike-RBD to hACE2 [4]: inhibit
- IC50 (15-lipoxygenase-1 (LOX); [11]): 41 ± 4 µM
- IC50 LOX (15-lipoxygenase-1 (LOX); µM value given in µg/mL, ref Pham et al., 2014): 26.01 ± 2.5 [Pham et al. (2014)] µg/mL
- glucose intolerance and insulin resistance ([5]; HFD-fed mice): improve
- plasma lipid concentrations ([5]; HFD-fed mice): improved
- HFD-induced accumulation of fat in the liver and liver injury [5]: reduce
- effect on cyclooxygenase-2 expression ([6]; protein and gene level): reduce
- effect on production of proinflammatory cytokines and mediators [6]: significantly reduce
- fasting blood glucose levels compared to diabetic control rats [7]: reduced
- toxic effects on normal cells or tissues (normal cells or tissues): almost no toxic effects

SMILES: COc1cc2oc(=O)ccc2cc1O [Compound 4, isoscopoletin]
- % inhibition of sucrase (sucrase): 20.9%
- % inhibition of maltase (maltase): 32.2%
- % inhibition of α-amylase (α-amylase): 0.2%
- IC50 (15-lipoxygenase-1 (LOX); ref Deng et al., 2007): 15.1 µM
- IC50 LOX (15-lipoxygenase-1 (LOX); µM value given in µg/mL, ref Deng et al., 2007): 2.902 [Deng et al. (2007)] µg/mL
- IC50 [8]: 18.8 ± 0.5 µM

SMILES: CCCCCCCC/C=C\CCCCCCCC(N)=O [Compound 6, oleamide]
- IC50 AGLUC (α-glucosidase (AGLUC); ref Fang et al., 2022): 30.69 ± 1.47 [Fang et al. (2022)] µg/mL
- effect on p38, ERK, and PI 3-kinase/Akt and ROS accumulation [9]: suppression
- effect on LPS-induced NF-κB activation [10]: inhibition

SMILES: CC1=CC(=O)CC(C)(C)[C@@]1(O)/C=C/C(C)=C\C(=O)O [Compound 9, abscisic acid]
- effect on glucose uptake in vitro (glucose uptake): regulates
- effect on insulin production in beta pancreatic cells (beta pancreatic cells): can stimulate
- effect on colon inflammation (colon inflammation): reduces
- effect on neuroinflammation (neuroinflammation): reduces

SMILES: Oc1cccc(O)c1O [Compound 14, pyrogallol]
- IC50 LOX (15-lipoxygenase-1 (LOX); mM value given in µg/mL, ref Yasumoto et al. (1970)): 1.097 × 10^3 [Yasumoto et al. (1970)] µg/mL
- IC50 (15-lipoxygenase-1 (LOX); ref Yasumoto, Yamamoto, and Mitsuda, 1970): 8700 µM

SMILES: O=c1c(O[C@@H]2O[C@H](CO)[C@H](O)[C@H](O)[C@H]2O)c(-c2ccc(O)c(O)c2)oc2cc(O)cc(O)c12 [hyperin, reference compound]
- IC50 AGLUC (α-glucosidase (AGLUC); ref Zhang et al., 2013): 19.26 µg/mL (≈ 41.5 µM)
